Experimental data: publication PMC6013238, “Development of novel NEMO-binding domain mimetics for inhibiting IKK/NF-κB activation” (PLoS Biology, 2018)
“And” between values parts separate entries of the source, which are not always exact repeats. Equal values may be shown once.

Key:
HEK293 cells = settings: Fig 2D; 100 μM, 24 h
Description: (A) HEK293 cells stably expressing NF-κB luciferase reporter were pretreated with indicated small molecules at 100 μM for 30 min, followed by stimulation with TNF-α (10 ng/ml) for 3 h. Luciferase activity was normalized to untreated stimulated control cells. […] (B) The dose-dependent response of ZINC12909780 was tested by NF-κB luciferase assay in HEK293 cells. Three independent experiments were performed, and data shown represent mean +/− SD. […] (D) HEK293 cells were cultured in the presence of 100 μM of indicated derivatives for 24 h, and cell survival was determined by MTT assay. Cell viability was calculated by normalizing to untreated cells. (E) Dose-dependent inhibitory effects were determined for ZINC5 at 0, 25, 50, and 100 μM by using NF-κB luciferase assay. (F) HEK293 were cultivated in the presence of ZINC5 at listed concentrations for 24 h, and cell survival was assessed by MTT assay. Data represent the mean +/− SD from 4–5 independent experiments. *P < 0.05; **P < 0.01; ***P < 0.001. Underlying data can be found in S1 Data. HEK293, human embryonic kidney 293 cells; MTT, 3-(4,5-dimethylthiazol-2-yl)-2,5-dephenyltetrazolium bromide colormetric assay for assessing cell metabolic activity; NF-κB, nuclear factor κB; TNF-α; tumor necrosis factor α; SD, standard deviation.
HEK293 cells were grown in a 96-well plate at 3 × 10^4 cells/well in triplicate and treated with DMSO or listed small molecules at indicated concentrations for 24 h. Cell survival was determined by adding 20 μl of 5 mg/ml MTT (thiazolyl blue tetrazolium bromide) to each well, followed by incubation in 37 °C for 3 h. Media were removed, and purple formazan was dissolved in 100 uL of DMSO. Absorbance was measured at 590 nm on a microplate reader (PerkinElmer, Waltham, MA). Cell viability was calculated by normalizing values to untreated controls.

NF-κB activation = assay: NF-κB firefly luciferase reporter assay, TNF-α-stimulated stably transfected HEK293 cells; format: cell-based, human; settings: TNF-α 10 ng/ml 3 h, vehicle = 100, single experiments; for NF-κB luciferase activity normalized to vehicle: Fig 2C, derivatives at 100 μM; for NF-κB luciferase activity normalized to untreated stimulated control: Fig 2A, 100 μM, 30 min pretreatment
Description: To determine whether the small molecules identified by the in silico screening inhibit NF-κB activation, a HEK293 cell line stably expressing a luciferase reporter driven by a synthetic, NF-κB-dependent promoter was utilized. To induce NF-κB activation, cells were treated with 10 ng/mL of TNF-α and harvested 3 h post treatment for analysis of luciferase activity. […] To determine whether ZINC12909780 inhibits NF-κB in a dose-dependent manner, concentrations were tested at 0, 6.25, 25, 50, and 100 μM.
Luciferase activity was normalized to untreated stimulated control cells. […] Cell viability was calculated by normalizing to untreated cells. […] Underlying data can be found in S1 Data.
HEK293 cells stably transfected with luciferase reporter plasmid driven by NF-κB were seeded in 96-well plates in triplicate and pretreated with DMSO or varying small molecules at indicated concentration for 30 min, followed by the stimulation of 10 ng/ml of TNF-α for 3 h. Cells were washed with PBS once and harvested in Passive Lysis Buffer (Promega, Madison, WI). Luciferase assay (Promega) was performed by using a luminometer according to the manufacturer’s instructions.

SMILES	Cell viability normalized to untreated cells (MTT) (HEK293 cells)	NF-κB luciferase activity normalized to vehicle (NF-κB activation)	also measured
O=C(COC(=O)c1ccc2ccccc2c1)Nc1ncc(C(F)(F)F)cc1Cl [ZINC4]	62 and 80 and 74 and 70	99.2 and 99.51 and 98.62 and 84.84 and 111.34	
O=C(COC(=O)c1cccc(F)c1)Nc1ccc(Cl)cn1 [ZINC14]	60 and 64 and 68 and 84	108.83 and 98.08 and 117.73 and 100.75 and 124.98	
O=C(COC(=O)c1cccc2ccccc12)Nc1ncc(C(F)(F)F)cc1Cl [ZINC8]	51 and 82 and 57 and 61	56.26 and 53.09 and 63.7 and 43.79 and 59.31	NF-κB luciferase activity normalized to vehicle (NF-κB activation; listed as Zinc8): lowered NF-κB activity robustly
O=C(NN=C1CCN(Cc2ccccc2)CC1)[C@H]1C[C@@H]1c1ccccc1 [ZINC05682974]			NF-κB luciferase activity normalized to untreated stimulated control (NF-κB activation): remained unchanged; NF-κB luciferase activity normalized to untreated stimulated control (NF-κB activation; listed as ZINC05682947): 105.454 and 97.4199
O=C(COC(=O)c1cccnc1Cl)Nc1ncc(Cl)cc1Cl [ZINC6]	90 and 71 and 78 and 92	114.53 and 96.57 and 113.68 and 101.67 and 104.3	
NC(=O)COC(=O)c1cccnc1Nc1ccccc1F [ZINC13]	82 and 81 and 84 and 90	100.33 and 91.05 and 121.31 and 95.5 and 122.97	
O=C(COC(=O)c1ccc(Cl)nc1)Nc1ncc(Cl)cc1Cl [ZINC11]	77 and 62 and 78 and 72	90.11 and 74.66 and 111.57 and 92.82 and 119.55	
O=C(COC(=O)c1ccc(F)cc1F)Nc1ccc(Cl)cn1 [ZINC12]	94 and 85 and 87	95.61 and 79.06 and 109.79 and 80.64 and 92.59	
O=C(COC(=O)c1nc(Cl)ccc1Cl)Nc1ncc(Cl)cc1Cl [ZINC2]		87.9 and 94.94 and 107.72 and 95.11 and 110.04	
O=C(COC(=O)c1nc(Cl)ccc1Cl)Nc1ccc(Cl)cn1 [ZINC3]	97 and 81 and 75	111.63 and 103.8 and 115.96 and 89.11 and 115.8	
O=C(COC(=O)c1ccc(F)cc1)Nc1ccc(Cl)cn1 [ZINC15]	58 and 77 and 86	103.61 and 97.73 and 103.85 and 95.58 and 115.08	
O=C(COC(=O)c1c2ccccc2cc2ccccc12)Nc1ncc(C(F)(F)F)cc1Cl [ZINC7]	73 and 51 and 70 and 69	99.14 and 98.45 and 107.93 and 94.89	
O=C(COC(=O)c1ccccn1)Nc1ncc(C(F)(F)F)cc1Cl [ZINC10]	89 and 65 and 84 and 79	108.77 and 101.36 and 116.46 and 94.96 and 126.1	
O=C(COC(=O)c1ncc(Cl)c(Cl)c1Cl)Nc1ccc(Cl)cn1 [ZINC1]		lowered NF-κB activity robustly	
O=C(COC(=O)Cc1ccccc1)Nc1ncc(Cl)cc1Cl [ZINC9]	92 and 86 and 88	67.06 and 59.84 and 88.3 and 70.04 and 84.32	NF-κB luciferase activity normalized to vehicle (NF-κB activation; listed as Zinc9): lowered NF-κB activity robustly
